Reference: patent publication US20260297060A1, “COMPOUNDS FOR THE DEGRADATION OF MUTANT BRAF” (C4 THERAPEUTICS, INC., priority 2023, published 2026)
Read-outs that look alike come from different tables or passages of the source.

How the values were obtained:
[1] = biological target: T1, BRAF V600E (Homo sapiens, UniProt P15056+Q96SW2, V600E); experiment: BRAF V600E HiBiT Degradation Assay; assay type: cell-based
T1 construct: knock-in of the HiBiT tag to the endogenous BRAF V600E locus; host or cells: A375.10 (A375 clonal line, CRISPR HiBiT knock-in at the endogenous BRAF V600E locus)
T1 sequence (P15056 whole entry V600E): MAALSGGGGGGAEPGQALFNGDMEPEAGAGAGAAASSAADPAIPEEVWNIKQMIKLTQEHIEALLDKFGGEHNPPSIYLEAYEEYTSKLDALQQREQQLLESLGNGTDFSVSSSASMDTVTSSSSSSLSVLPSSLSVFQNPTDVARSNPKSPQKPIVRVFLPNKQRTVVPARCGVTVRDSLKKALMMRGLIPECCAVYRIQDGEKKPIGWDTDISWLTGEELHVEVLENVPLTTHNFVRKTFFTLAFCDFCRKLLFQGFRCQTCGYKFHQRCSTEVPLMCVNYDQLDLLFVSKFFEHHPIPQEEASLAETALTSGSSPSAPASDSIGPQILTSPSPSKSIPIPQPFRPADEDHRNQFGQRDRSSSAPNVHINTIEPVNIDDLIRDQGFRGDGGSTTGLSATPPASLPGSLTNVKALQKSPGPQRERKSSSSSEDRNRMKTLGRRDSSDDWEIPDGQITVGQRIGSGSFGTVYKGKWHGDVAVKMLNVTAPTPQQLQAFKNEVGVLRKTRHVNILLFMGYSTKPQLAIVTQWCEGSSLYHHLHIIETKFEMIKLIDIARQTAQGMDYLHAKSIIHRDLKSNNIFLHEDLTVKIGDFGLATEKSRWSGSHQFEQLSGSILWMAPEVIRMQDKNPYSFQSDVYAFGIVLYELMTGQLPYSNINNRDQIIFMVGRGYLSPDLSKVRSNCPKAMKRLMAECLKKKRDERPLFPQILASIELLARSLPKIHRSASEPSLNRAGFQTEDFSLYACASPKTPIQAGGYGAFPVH
T1 sequence (Q96SW2 whole entry): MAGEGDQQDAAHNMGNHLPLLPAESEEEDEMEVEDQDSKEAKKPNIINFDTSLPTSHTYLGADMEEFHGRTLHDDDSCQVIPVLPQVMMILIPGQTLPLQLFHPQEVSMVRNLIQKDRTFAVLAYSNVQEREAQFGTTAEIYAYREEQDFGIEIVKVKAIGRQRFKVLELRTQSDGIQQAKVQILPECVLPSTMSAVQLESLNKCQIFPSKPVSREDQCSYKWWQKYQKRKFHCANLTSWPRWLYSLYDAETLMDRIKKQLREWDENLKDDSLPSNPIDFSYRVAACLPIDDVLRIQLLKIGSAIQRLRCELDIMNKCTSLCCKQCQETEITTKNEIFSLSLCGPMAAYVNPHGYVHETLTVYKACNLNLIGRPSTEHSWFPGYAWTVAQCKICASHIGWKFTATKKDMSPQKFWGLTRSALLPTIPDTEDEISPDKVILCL
T1 sequence (Q16531 whole entry partner): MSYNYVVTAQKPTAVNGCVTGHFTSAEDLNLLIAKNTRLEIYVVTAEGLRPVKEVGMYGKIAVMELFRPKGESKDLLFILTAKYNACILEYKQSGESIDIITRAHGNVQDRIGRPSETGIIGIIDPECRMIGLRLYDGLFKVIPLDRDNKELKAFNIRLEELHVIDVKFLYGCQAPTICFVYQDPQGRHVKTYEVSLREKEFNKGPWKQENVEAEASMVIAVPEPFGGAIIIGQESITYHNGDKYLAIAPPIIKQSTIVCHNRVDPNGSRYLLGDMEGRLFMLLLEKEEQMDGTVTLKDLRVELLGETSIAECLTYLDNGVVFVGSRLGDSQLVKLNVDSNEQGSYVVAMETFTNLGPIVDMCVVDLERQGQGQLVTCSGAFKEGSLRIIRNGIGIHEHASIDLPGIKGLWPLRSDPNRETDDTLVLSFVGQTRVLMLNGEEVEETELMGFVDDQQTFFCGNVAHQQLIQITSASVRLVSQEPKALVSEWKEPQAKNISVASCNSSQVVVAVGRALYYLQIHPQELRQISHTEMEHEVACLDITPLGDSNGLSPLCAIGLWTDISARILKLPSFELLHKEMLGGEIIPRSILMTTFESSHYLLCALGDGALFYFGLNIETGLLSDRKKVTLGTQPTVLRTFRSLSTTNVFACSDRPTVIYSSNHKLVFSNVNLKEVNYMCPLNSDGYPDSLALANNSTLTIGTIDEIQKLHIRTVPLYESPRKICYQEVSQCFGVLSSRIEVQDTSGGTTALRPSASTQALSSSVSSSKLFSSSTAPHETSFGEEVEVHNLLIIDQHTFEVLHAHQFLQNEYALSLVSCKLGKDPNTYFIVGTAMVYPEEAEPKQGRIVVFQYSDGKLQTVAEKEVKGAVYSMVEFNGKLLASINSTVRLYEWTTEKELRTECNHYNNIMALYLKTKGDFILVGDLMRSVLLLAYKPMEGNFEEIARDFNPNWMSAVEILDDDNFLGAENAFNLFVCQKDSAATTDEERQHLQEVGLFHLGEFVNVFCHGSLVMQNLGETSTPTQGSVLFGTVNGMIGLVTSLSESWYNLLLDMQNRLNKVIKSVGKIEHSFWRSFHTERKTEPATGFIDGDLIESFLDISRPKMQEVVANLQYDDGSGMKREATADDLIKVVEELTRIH
In short: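 Endogenous HiBiT knock-in on BRAF V600E in A375 cells (clone A375.10); 11-point half-log series, top 10 μM, 2, 6 or 24 h at 37° C. Lytic HiBiT luminescence, background-subtracted, normalized to DMSO; 4-parameter fit gives DC50, Emax (residual protein) and IP (inflection point).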

[2] = tested on: A375-NRAS^Q61K cells; experiment: CTGlo Cell Viability Assay, A375-NRAS^Q61K (A375.11) cells, 96 hours; assay type: cell-based, human; settings: A375.11 (A375-NRAS^Q61K) cells; for CTGlo A375.11 96 hours Emax / Emax: lowest % viability achieved
In short: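 Viability as CellTiter-Glo ATP luminescence after 96 h compound exposure at 37 °C; A375.11 (BRAF V600E/NRAS Q61K) cells at 250/well, top final concentration 10 μM in half-log steps. Signal was background-corrected and set relative to DMSO controls. A 4-parameter logistic fit gave GI50 (50% crossing) and Emax.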

[3] = A375.10 cells, BRAF V600E, 2 hours, inflection point, read-out: HiBiT-Degradation A375.10 BRAF 2 hours IP
[4] = A375.10 cells, BRAF V600E, 2 hours, read-out: HiBiT-Degradation A375.10 BRAF 2 hours DC50
[5] = A375.10 cells, BRAF V600E, 2 hours, residual protein remaining, read-out: HiBiT-Degradation A375.10 BRAF 2 hours Emax
[6] = A375.10 cells, BRAF V600E, 2 hours, residual protein remaining
[7] = A375.10 cells, BRAF V600E, 6 hours, inflection point, read-out: HiBiT-Degradation A375.10 BRAF 6 hours IP
[8] = A375.10 cells, BRAF V600E, 6 hours, read-out: HiBiT-Degradation A375.10 BRAF 6 hours DC50
[9] = A375.10 cells, BRAF V600E, 6 hours, residual protein remaining, read-out: HiBiT-Degradation A375.10 BRAF 6 hours Emax
[10] = A375.10 cells, HiBiT, BRAF V600E, 24 hours, read-out: HiBiT-Degradation A375.10 BRAF 24 hours DC50
[11] = A375.10 cells, HiBiT, BRAF V600E, 24 hours, read-out: HiBiT-Degradation A375.10 BRAF 24 hours Emax
[12] = A375.10 cells, HiBiT, BRAF V600E, 24 hours, read-out: HiBiT-Degradation A375.10 BRAF 24 hours IP
[13] = A375.10 cells, BRAF V600E, 6 hours, residual protein remaining
[14] = A375.10 cells, HiBiT, BRAF V600E, 24 hours

Structure (SMILES)	HiBiT-Degradation A375.10 BRAF 2 hours Emax [1]	DC50 [1, 3]	DC50 [1, 4]	GI50 [2]	CTGlo A375.11 96 hours Emax [2]	Emax [1, 5]	GI50 ([2]; Homo sapiens, 96 h)	Emax ([2]; Homo sapiens, 96 h)	Emax ([1]; read-out: HiBiT-Degradation A375.10 BRAF 2 hours Emax, A375.10 cells, BRAF V600E, 2 hours, residual protein remaining)	HiBiT-Degradation A375.10 BRAF 2 hours Emax [1, 6]	DC50 [1, 7]	DC50 [1, 8]	Emax [1, 9]	DC50 [1, 10]	Emax [1, 11]	DC50 [1, 12]	HiBiT-Degradation A375.10 BRAF 6 hours Emax [1, 13]	HiBiT-Degradation A375.10 BRAF 24 hours Emax [1, 14]
CCN(C)S(=O)(=O)Nc1ccc(F)c(Oc2ccc3ncc([C@H]4COC5(CCN(C6CCC(c7ccc(NC8CCC(=O)NC8=O)cc7F)CC6)CC5)C4)nc3c2)c1C#N (single isomer, unassigned) [Compound 59]	** (<90% and >50%)	< 1 µM	< 1 µM	1 to 10 µM	** (<90% and >50%)	–	–	–	–	–	–	–	–	–	–	–	–	–
CN(CCO)S(=O)(=O)Nc1ccc(F)c(Oc2ccc3ncc([C@H]4COC5(CCN(C6CCC(c7cc8c(cc7F)c(N7CCC(=O)NC7=O)nn8C)CC6F)CC5)C4)nc3c2)c1C#N (single isomer, unassigned) [Compound 170]	–	< 1 µM	> 10 µM	–	–	50 to 90%	1 to 10 µM	50 to 90%	–	–	–	–	–	–	–	–	–	–
CN(CCO)S(=O)(=O)Nc1ccc(F)c(Oc2ccc3ncn([C@H]4COC5(CCN([C@H]6C[C@@H](c7ccc(NC8CCC(=O)NC8=O)cc7F)C6)CC5)C4)c(=O)c3c2)c1C#N (stereo partly drawn) [Compound 168, (3R)-3-[6-[2-cyano-6-fluoro-3-[[2-hydroxyethyl(methyl)sulfamoyl]amino]phenoxy]-4-oxo-quinazolin-3-yl]-8-[3-[4-[(2,6-dioxo-3-piperidyl)amino]-2-fluoro-phenyl]cyclobutyl]-1-oxa-8-azaspiro[4.5]decane]	–	< 1 µM	< 1 µM	–	–	50 to 90%	> 10 µM	50 to 90%	–	–	–	–	–	–	–	–	–	–
Cn1nc(N2CCC(=O)NC2=O)c2cc(F)c(C3CCC(N4CCC5(CC4)CC(c4cnc6ccc(Oc7c(F)ccc(NS(=O)(=O)N8CC[C@@H](F)C8)c7C#N)cc6n4)C5)CC3)cc21 (stereo partly drawn) [Compound 267, (3R)-N-[2-cyano-3-[3-[7-[4-[3-(2,4-dioxohexahydropyrimidin-1-yl)-5-fluoro-1-methyl-indazol-6-yl]cyclohexyl]-7-azaspiro[3.5]nonan-2-yl]quinoxalin-6-yl]oxy-4-fluoro-phenyl]-3-fluoro-pyrrolidine-1-sulfonamide]	–	< 1 µM	< 1 µM	–	–	–	< 1 µM	< 50%	< 50%	–	–	–	–	–	–	–	–	–
CCN(C)S(=O)(=O)Nc1ccc(F)c(Nc2ccc3ncn([C@H]4COC5(CCN(C6CCC(c7ccc(NC8CCC(=O)NC8=O)cc7F)CC6)CC5)C4)c(=O)c3c2)c1C#N (single isomer, unassigned) [Compound 57]	–	< 1 µM	< 1 µM	1 to 10 µM	** (<90% and >50%)	–	–	–	–	*** (<=50%)	< 1 µM	< 1 µM	< 50%	< 1 µM	< 50%	< 1 µM	–	–
CO[C@@H]1CCN(S(=O)(=O)Nc2ccc(F)c(Oc3ccc4ncc(C5CC6(CCN(C7CCC(c8cc9c(cc8F)c(N8CCC(=O)NC8=O)nn9C)CC7)CC6)C5)nc4c3)c2C#N)C1 (single isomer, unassigned) [Compound 285]	–	–	< 1 µM	< 1 µM	–	–	–	–	–	–	–	–	–	–	–	–	–	–
CCN(C)S(=O)(=O)Nc1ccc(F)c(Oc2ccc3ncn([C@@H]4C[C@@H]5CN(C6CCC(c7cc8c(cc7F)c(N7CCC(=O)NC7=O)nn8C)CC6)C[C@@H]5C4)c(=O)c3c2)c1C#N (single isomer, unassigned) [Compound 16]	–	< 1 µM	< 1 µM	1 to 10 µM	–	50 to 90%	–	< 50%	–	–	–	–	–	–	–	–	–	–
CCN(C)S(=O)(=O)Nc1ccc(F)c(Oc2ccc3ncnc(OC4CC5(C4)CN(C4CCC(c6cc7c(cc6F)c(N6CCC(=O)NC6=O)nn7C)CC4)C5)c3c2)c1C#N (single isomer, unassigned) [Compound 233, 6-[2-cyano-3-[[ethyl(methyl)sulfamoyl]amino]-6-fluoro-phenoxy]-4-[[2-[4-[3-(2,4-dioxohexahydropyrimidin-1-yl)-5-fluoro-1-methyl-indazol-6-yl]cyclohexyl]-2-azaspiro[3.3]heptan-6-yl]oxy]quinazoline]	** (<90% and >50%)	< 1 µM	< 1 µM	> 10 µM	** (<90% and >50%)	–	–	–	–	–	–	–	–	–	–	–	–	–
Cn1nc(N2CCC(=O)NC2=O)c2cc(F)c(C3CCC(N4CCC5(CC4)CC(n4cnc6ccc(Oc7c(F)ccc(NS(=O)(=O)N8CC[C@@H](F)C8)c7C#N)cc6c4=O)C5)CC3)cc21 (single isomer, unassigned) [Compound 123]	–	< 1 µM	< 1 µM	< 1 µM	*** (<=50%)	–	–	–	–	*** (<=50%)	< 1 µM	< 1 µM	–	< 1 µM	–	< 1 µM	*** (<=50%)	*** (<=50%)
Cn1nc(N2CCC(=O)NC2=O)c2cc(F)c(C3CCC(N4CCC5(CC4)CC(n4cnc6ccc(Oc7c(F)ccc(NS(=O)(=O)C8CCCC8)c7C#N)cc6c4=O)C5)CC3)cc21 (single isomer, unassigned) [Compound 94, N-[2-cyano-3-[3-[7-[4-[3-(2,4-dioxohexahydropyrimidin-1-yl)-5-fluoro-1-methyl-indazol-6-yl]cyclohexyl]-7-azaspiro[3.5]nonan-2-yl]-4-oxo-quinazolin-6-yl]oxy-4-fluoro-phenyl]cyclopentanesulfonamide]	*** (<=50%)	< 1 µM	< 1 µM	< 1 µM	*** (<=50%)	–	–	–	–	–	< 1 µM	< 1 µM	–	< 1 µM	–	< 1 µM	*** (<=50%)	*** (<=50%)
CCN(C)S(=O)(=O)Nc1ccc(F)c(Nc2ccc3ncn([C@H]4COC5(CCN(C6CCC(c7cc8c(cc7F)c(N7CCC(=O)NC7=O)nn8C)CC6)CC5)C4)c(=O)c3c2)c1C#N (single isomer, unassigned) [Compound 65]	–	< 1 µM	1 to 10 µM	> 10 µM	** (<90% and >50%)	–	–	–	–	** (<90% and >50%)	–	–	–	–	–	–	–	–
CCN(C)S(=O)(=O)Nc1ccc(F)c(Oc2ccc3ncn([C@@H]4C[C@@H]5CN(C6CCC(c7cc8c(cc7F)c(N7CCC(=O)NC7=O)nn8C)CC6)C[C@@H]5C4)c(=O)c3c2)c1C#N (single isomer, unassigned) [Compound 17]	–	< 1 µM	< 1 µM	> 10 µM	** (<90% and >50%)	–	–	–	–	** (<90% and >50%)	–	–	–	–	–	–	–	–
CC(C)S(=O)(=O)Nc1ccc(F)c(Oc2ccc3ncc(C4CC5(CCN(C6CCC(c7cc8c(cc7F)c(N7CCC(=O)NC7=O)nn8C)CC6)CC5)C4)nc3c2)c1C#N (single isomer, unassigned) [Compound 248, N-[2-cyano-3-[3-[7-[4-[3-(2,4-dioxohexahydropyrimidin-1-yl)-5-fluoro-1-methyl-indazol-6-yl]cyclohexyl]-7-azaspiro[3.5]nonan-2-yl]quinoxalin-6-yl]oxy-4-fluoro-phenyl]propane-2-sulfonamide]	–	< 1 µM	< 1 µM	–	–	< 50%	1 to 10 µM	50 to 90%	–	–	–	–	–	–	–	–	–	–
CCN(C)S(=O)(=O)Nc1ccc(F)c(Nc2ccc3ncn([C@@H]4COC5(CCN(C6CCC(c7cc8c(cc7F)c(N7CCC(=O)NC7=O)nn8C)CC6)CC5)C4)c(=O)c3c2F)c1C#N (single isomer, unassigned) [Compound 69]	–	< 1 µM	< 1 µM	< 1 µM	*** (<=50%)	–	–	–	–	*** (<=50%)	< 1 µM	< 1 µM	< 50%	< 1 µM	< 50%	< 1 µM	–	–
